According to US8680108B2, “Substituted fused aryl and heteroaryl derivatives as PI3K inhibitors” (Incyte Corporation, priority 2009, dated 2014):

biological target: T1, PI3Kδ (p110δ/p85α) (Homo sapiens, UniProt O00329); assay: PI3Kδ scintillation proximity assay; assay type: biochemical; conditions: not given
T1 construct: purchased Millipore (Bedford, Mass.)
Excerpt: Materials: [γ-^33P]ATP (10 mCi/mL) was purchased from Perkin-Elmer (Waltham, Mass.). Lipid kinase substrate, D-myo-Phosphatidylinositol 4,5-bisphosphate (PtdIns(4,5)P2)D (+)-sn-1,2-di-O-octanoylglyceryl, 3-O-phospho linked (PIP2), CAS 204858-53-7, was purchased from Echelon Biosciences (Salt Lake City, Utah). PI3Kδ (p110δ/p85α) was purchased from Millipore (Bedford, Mass.). ATP, MgCl2, DTT, EDTA, MOPS and CHAPS were purchased from Sigma-Aldrich (St. Louis, Mo.). Wheat Germ Agglutinin (WGA) YSi SPA Scintillation Beads was purchased from GE healthcare life sciences (Piscataway, N.J.).
Assay: The kinase reaction was conducted in polystyrene 384-well matrix white plate from Thermo Fisher Scientific in a final volume of 25 μL. Inhibitors were first diluted serially in DMSO and added to the plate wells before the addition of other reaction components. The final concentration of DMSO in the assay was 0.5%. The PI3K assays were carried out at room temperature in 20 mM MOPS, pH 6.7, 10 mM MgCl2, 5 mM DTT and CHAPS 0.03%. Reactions were initiated by the addition of ATP, the final reaction mixture consisted of 20 μM PIP2, 20 μM ATP, 0.2 μCi [γ-^33P] ATP, 4 nM PI3Kδ. Reactions were incubated for 210 minutes and terminated by the addition of 40 μL SPA beads suspended in quench buffer: 150 mM potassium phosphate pH 8.0, 20% glycerol. 25 mM EDTA, 400 μM ATP. The final concentration of SPA beads is 1.0 mg/mL. After the plate sealing, plates were shaken overnight at room temperature and centrifuged at 1800 rpm for 10 minutes, the radioactivity of the product was determined by scintillation counting on Topcount (Perkin-Elmer). IC50 determination was performed by fitting the curve of percent control activity versus the log of the inhibitor concentration using the GraphPad Prism® 3.0 software.

T1 sequence (O00329 whole entry): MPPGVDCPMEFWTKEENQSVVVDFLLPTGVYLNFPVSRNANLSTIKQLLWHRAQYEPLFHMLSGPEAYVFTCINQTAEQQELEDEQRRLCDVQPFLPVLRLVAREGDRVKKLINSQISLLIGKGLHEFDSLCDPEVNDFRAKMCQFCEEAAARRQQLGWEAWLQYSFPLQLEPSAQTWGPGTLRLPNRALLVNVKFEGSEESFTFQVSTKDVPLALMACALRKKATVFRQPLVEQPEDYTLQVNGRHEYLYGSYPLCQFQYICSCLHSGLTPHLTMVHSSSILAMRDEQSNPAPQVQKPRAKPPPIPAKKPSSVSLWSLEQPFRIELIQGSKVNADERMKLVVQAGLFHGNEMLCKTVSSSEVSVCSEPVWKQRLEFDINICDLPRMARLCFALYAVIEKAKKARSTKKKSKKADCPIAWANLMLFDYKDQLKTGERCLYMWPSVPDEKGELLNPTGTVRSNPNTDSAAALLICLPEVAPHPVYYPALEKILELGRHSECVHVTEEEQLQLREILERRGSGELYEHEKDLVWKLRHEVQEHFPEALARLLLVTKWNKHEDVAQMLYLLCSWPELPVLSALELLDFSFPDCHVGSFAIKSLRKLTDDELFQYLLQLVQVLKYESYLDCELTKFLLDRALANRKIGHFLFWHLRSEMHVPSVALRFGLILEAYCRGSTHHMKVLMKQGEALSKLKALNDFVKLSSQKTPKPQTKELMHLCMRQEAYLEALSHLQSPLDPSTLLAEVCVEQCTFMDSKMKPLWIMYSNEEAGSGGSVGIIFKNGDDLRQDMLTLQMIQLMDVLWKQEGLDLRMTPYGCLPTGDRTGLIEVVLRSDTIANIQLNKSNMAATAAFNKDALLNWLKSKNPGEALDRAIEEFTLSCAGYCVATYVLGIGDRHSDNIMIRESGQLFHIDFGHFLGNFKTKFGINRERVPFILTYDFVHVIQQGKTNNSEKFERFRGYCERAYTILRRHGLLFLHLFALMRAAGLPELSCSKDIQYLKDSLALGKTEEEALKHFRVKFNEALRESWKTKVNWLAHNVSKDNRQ
T1 sequence (P27986 whole entry partner): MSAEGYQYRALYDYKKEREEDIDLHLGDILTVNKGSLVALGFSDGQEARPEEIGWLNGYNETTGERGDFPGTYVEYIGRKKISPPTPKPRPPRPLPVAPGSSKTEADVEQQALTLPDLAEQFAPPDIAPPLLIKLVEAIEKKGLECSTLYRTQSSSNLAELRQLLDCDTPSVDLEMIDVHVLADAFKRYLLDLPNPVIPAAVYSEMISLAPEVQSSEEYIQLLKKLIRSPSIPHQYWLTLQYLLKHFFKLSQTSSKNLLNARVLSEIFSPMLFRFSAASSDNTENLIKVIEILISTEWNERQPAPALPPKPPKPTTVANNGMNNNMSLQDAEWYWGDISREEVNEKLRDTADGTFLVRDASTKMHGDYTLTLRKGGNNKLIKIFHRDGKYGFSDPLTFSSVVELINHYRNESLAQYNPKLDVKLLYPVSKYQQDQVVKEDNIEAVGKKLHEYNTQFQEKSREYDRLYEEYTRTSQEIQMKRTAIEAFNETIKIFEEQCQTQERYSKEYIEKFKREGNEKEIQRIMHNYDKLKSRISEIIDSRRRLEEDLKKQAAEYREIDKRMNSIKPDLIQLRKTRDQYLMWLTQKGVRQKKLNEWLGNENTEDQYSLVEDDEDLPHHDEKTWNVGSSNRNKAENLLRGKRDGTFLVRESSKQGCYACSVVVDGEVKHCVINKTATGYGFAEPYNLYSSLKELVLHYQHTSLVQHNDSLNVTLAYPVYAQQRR

IC50	Structure (SMILES)
100 to 250 nM	CC(Nc1ncnc2[nH]cnc12)c1cc(Cl)c2cccnc2c1N1CCC(NS(C)(=O)=O)CC1 (stereo not drawn) [Example 81, N-(1-{5-Chloro-7-[1-(9H-purin-6-ylamino)ethyl]quinolin-8-yl}piperidin-4-yl)methanesulfonamide bis(trifluoroacetate)]
< 50 nM	CC(=O)NC1CCN(c2c(C(C)Nc3ncnc4[nH]cnc34)cc(Cl)c3cccnc23)CC1 (stereo not drawn) [Example 82, N-(1-{5-Chloro-7-[1-(9H-purin-6-ylamino)ethyl]quinolin-8-yl}piperidin-4-yl)acetamide bis(trifluoroacetate)]
< 50 nM	COC(=O)NC1CCN(c2c(C(C)Nc3ncnc4[nH]cnc34)cc(Cl)c3cccnc23)CC1 (stereo not drawn) [Example 83, Methyl(1-{5-Chloro-7-[1-(9H-purin-6-ylamino)ethyl]quinolin-8-yl}piperidin-4-yl)carbamate bis(trifluoroacetate)]
< 50 nM	CC(Nc1ncnc2[nH]cnc12)c1cc(Cl)c2cccnc2c1N1CCN(C(=O)C2CC2)CC1 (stereo not drawn) [Example 84, N-(1-{5-Chloro-8-[4-(cyclopropylcarbonyl)piperazin-1-yl]quinolin-7-yl}ethyl)-9H-purin-6-amine bis(trifluoroacetate)]
< 50 nM	COC(=O)N1CCN(c2c(C(C)Nc3ncnc4[nH]cnc34)cc(Cl)c3cccnc23)CC1 (stereo not drawn) [Example 85, Methyl 4-{5-Chloro-7-[1-(9H-purin-6-ylamino)ethyl]quinolin-8-yl}piperazine-1-carboxylatebis(trifluoroacetate)]
< 50 nM	CC(Nc1ncnc2[nH]cnc12)c1cc(Cl)c2cccnc2c1N1CCN(C(=O)C2CCC2)CC1 (stereo not drawn) [Example 86, N-(1-{5-Chloro-8-[4-(cyclobutylcarbonyl)piperazin-1-yl]quinolin-7-yl}ethyl)-9H-purin-6-amine bis(trifluoroacetate)]
< 50 nM	COCC(=O)N1CCN(c2c(C(C)Nc3ncnc4[nH]cnc34)cc(Cl)c3cccnc23)CC1 (stereo not drawn) [Example 87, N-(1-{5-Chloro-8-[4-(methoxyacetyl)piperazin-1-yl]quinolin-7-yl}ethyl)-9H-purin-6-amine bis(trifluoroacetate)]
< 50 nM	CC(Nc1ncnc2[nH]cnc12)c1cc(Cl)c2cccnc2c1N1CCN(C(=O)N(C)C)CC1 (stereo not drawn) [Example 88, 4-{5-Chloro-7-[1-(9H-purin-6-ylamino)ethyl]quinolin-8-yl}-N,N-dimethylpiperazine-1-carboxamide bis(trifluoroacetate)]
50 to 100 nM	CC(Nc1ncnc2[nH]cnc12)c1cc(Cl)c2cccnc2c1N1CCN(C(=O)c2ccccc2)CC1 (stereo not drawn) [Example 89, N-(1-[8-(4-Benzoylpiperazin-1-yl)-5-chloroquinolin-7-yl]ethyl}-9H-purin-6-amine bis(trifluoroacetate)]
< 50 nM	CC(Nc1ncnc2[nH]cnc12)c1cc(Cl)c2cccnc2c1N1CCN(CC(=O)N(C)C)CC1 (stereo not drawn) [Example 90, 2-(4-{5-Chloro-7-[1-(9H-purin-6-ylamino)ethyl]quinolin-8-yl}piperazin-1-yl)-N,N-dimethylacetamide tris(trifluoroacetate)]
100 to 250 nM	CC(Nc1ncnc2[nH]cnc12)c1cc(Cl)c2cccnc2c1N1CCN(C(=O)c2ccc(F)cc2)CC1 (stereo not drawn) [Example 91, N-(1-{5-Chloro-8-[4-(4-fluorobenzoyl)piperazin-1-yl]quinolin-7-yl}ethyl)-9H-purin-6-amine bis(trifluoroacetate)]
100 to 250 nM	CC(Nc1ncnc2[nH]cnc12)c1cc(Cl)c2cccnc2c1N1CCN(C(=O)c2cccc(F)c2)CC1 (stereo not drawn) [Example 92, N-(1-{5-Chloro-8-[4-(3-fluorobenzoyl)piperazin-1-yl]quinolin-7-yl}ethyl)-9H-purin-6-amine bis(trifluoroacetate)]
250 to 500 nM	CC(Nc1ncnc2[nH]cnc12)c1cc(Cl)c2cccnc2c1N1CCN(C(=O)c2ccccc2F)CC1 (stereo not drawn) [Example 93, N-(1-{5-Chloro-8-[4-(2-fluorobenzoyl)piperazin-1-yl]quinolin-7-yl}ethyl)-9H-purin-6-amine bis(trifluoroacetate)]
< 50 nM	CC(=O)N1CCC(C(=O)N2CCN(c3c(C(C)Nc4ncnc5[nH]cnc45)cc(Cl)c4cccnc34)CC2)CC1 (stereo not drawn) [Example 94, N-[1-(8-{4-[(1-Acetylpiperidin-4-yl)carbonyl]piperazin-1-yl}-5-chloroquinolin-7-yl)ethyl]-9H-purin-6-amine bis(trifluoroacetate)]
< 50 nM	CC(Nc1ncnc2[nH]cnc12)c1cc(Cl)c2cccnc2c1N1CCN(C(=O)c2ccccn2)CC1 (stereo not drawn) [Example 95, N-(1-{5-Chloro-8-[4-(pyridin-2-ylcarbonyl)piperazin-1-yl]quinolin-7-yl}ethyl)-9H-purin-6-amine tris(trifluoroacetate)]
< 50 nM	CC(Nc1ncnc2[nH]cnc12)c1cc(Cl)c2cccnc2c1N1CCN(C(=O)c2cccnc2)CC1 (stereo not drawn) [Example 96, N-(1-{5-Chloro-8-[4-(pyridin-3-ylcarbonyl)piperazin-1-yl]quinolin-7-yl}ethyl)-9H-purin-6-amine tris(trifluoroacetate)]
< 50 nM	CC(Nc1ncnc2[nH]cnc12)c1cc(Cl)c2cccnc2c1N1CCN(C(=O)c2cnccn2)CC1 (stereo not drawn) [Example 97, N-(1-{5-Chloro-8-[4-(pyrazin-2-ylcarbonyl)piperazin-1-yl]quinolin-7-yl}ethyl)-9H-purin-6-amine bis(trifluoroacetate)]
< 50 nM	CC(Nc1ncnc2[nH]cnc12)c1cc(Cl)c2cccnc2c1N1CCN(C(=O)c2ccncc2)CC1 (stereo not drawn) [Example 98, N-{1-[5-Chloro-8-(4-isonicotinoylpiperazin-1-yl)quinolin-7-yl]ethyl}-9H-purin-6-amine tris(trifluoroacetate)]
< 50 nM	Cc1cc(C(=O)N2CCN(c3c(C(C)Nc4ncnc5[nH]cnc45)cc(Cl)c4cccnc34)CC2)no1 (stereo not drawn) [Example 99, N-[1-(5-Chloro-8-{4-[(5-methylisoxazol-3-yl)carbonyl]piperazin-1-yl}quinolin-7-yl)ethyl]-9H-purin-6-amine bis(trifluoroacetate)]
< 50 nM	Cc1noc(C)c1C(=O)N1CCN(c2c(C(C)Nc3ncnc4[nH]cnc34)cc(Cl)c3cccnc23)CC1 (stereo not drawn) [Example 100, N-[1-(5-Chloro-8-{4-[(3,5-dimethylisoxazol-4-yl)carbonyl]piperazin-1-yl}quinolin-7-yl)ethyl]-9H-purin-6-amine bis(trifluoroacetate)]
< 50 nM	CC(Nc1ncnc2[nH]cnc12)c1cc(Cl)c2cccnc2c1N1CCN(C(=O)c2ccn(C)n2)CC1 (stereo not drawn) [Example 101, N-[1-(5-Chloro-8-{4-[(1-methyl-1H-pyrazol-3-yl)carbonyl]piperazin-1-yl}quinolin-7-yl)ethyl]-9H-purin-6-amine bis(trifluoroacetate)]
< 50 nM	CC(Nc1ncnc2[nH]cnc12)c1cc(F)c2cccnc2c1N1CCN(C(=O)c2cnn(C)c2)CC1 (stereo not drawn) [Example 103, N-[1-(5-Fluoro-8-{4-[(1-methyl-1H-pyrazol-4-yl)carbonyl]piperazin-1-yl}quinolin-7-yl)ethyl]-9H-purin-6-amine bis(trifluoroacetate)]
< 50 nM	CC(Nc1ncnc2[nH]cnc12)c1cc(Cl)c2conc2c1-c1cccc(F)c1 (stereo not drawn) [Example 104, N-{1-[4-Chloro-7-(3-fluorophenyl)-2,1-benzisoxazol-6-yl]ethyl}-9H-purin-6-amine]
< 50 nM	CC(Nc1ncnc2[nH]cnc12)c1cc(Cl)c2cn[nH]c2c1-c1cccc(F)c1 (stereo not drawn) [Example 105, N-{1-[4-Chloro-7-(3-fluorophenyl)-1H-indazol-6-yl]ethyl}-9H-purin-6-amine]
< 50 nM	CC(Nc1ncnc2[nH]cnc12)c1cc(Cl)c2cn[nH]c2c1-c1cc(F)cc(F)c1 (stereo not drawn) [Example 106, N-{1-[4-Chloro-7-(3,5-difluorophenyl)-1H-indazol-6-yl]ethyl)-9H-purin-6-amine]
< 50 nM	CC(Nc1ncnc2[nH]cnc12)c1cc(Cl)c2cnn(C)c2c1-c1cc(F)cc(F)c1 (stereo not drawn) [Example 107]

same assay, conditions: separated isomer, 1st peak

IC50	Structure (SMILES)
> 1000 nM	CCC(=O)N[C@H]1CCN(c2c(C(C)Nc3ncnc4[nH]cnc34)cc(Cl)c3cccnc23)C1 (stereo partly drawn) [Example 77, N-((3S)-1-{5-Chloro-7-[1-(9H-purin-6-ylamino)ethyl]quinolin-8-yl}pyrrolidin-3-yl)propanamide tris(trifluoroacetate)]
< 50 nM	CC(Nc1ncnc2[nH]cnc12)c1cc(F)c2cccnc2c1-c1cccc(F)c1 (stereo not drawn) [Example 102, N-{1-[5-fluoro-8-(3-fluorophenyl)quinolin-7-yl]ethyl}-9H-purin-6-amine]

same assay, conditions: separated isomer, 2nd peak

IC50	Structure (SMILES)
< 50 nM	CCC(=O)N[C@H]1CCN(c2c(C(C)Nc3ncnc4[nH]cnc34)cc(Cl)c3cccnc23)C1 (stereo partly drawn) [Example 77, N-((3S)-1-{5-Chloro-7-[1-(9H-purin-6-ylamino)ethyl]quinolin-8-yl}pyrrolidin-3-yl)propanamide tris(trifluoroacetate)]
> 1000 nM	CC(Nc1ncnc2[nH]cnc12)c1cc(F)c2cccnc2c1-c1cccc(F)c1 (stereo not drawn) [Example 102, N-{1-[5-fluoro-8-(3-fluorophenyl)quinolin-7-yl]ethyl}-9H-purin-6-amine]
